Paper PMC3399817 (PLoS ONE, 2012)

Legend:
Assay in all cases: KINOMEscan
Type in all cases: binding
[1] = biological target: T1, AAK1 (Homo sapiens, UniProt Q2M2I8); conditions: AAK1, 1 uM
T1 construct: purchased Ambit KINOMEscan (DiscoverX)
Procedure, shortened: (§1)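 Compounds were each tested at a single concentration of 1 μM in a binding-based kinase panel.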

[2] = biological target: T2, ALK (Homo sapiens, UniProt Q9UM73); conditions: 1 uM
T2 construct: purchased Ambit KINOMEscan (DiscoverX)
Procedure, shortened: as §1

[3] = biological target: T3, CDC2L2 (Homo sapiens, UniProt Q9UQ88); conditions: CDC2L2, 1 uM
T3 construct: purchased Ambit KINOMEscan (DiscoverX)
Procedure, shortened: as §1

[4] = biological target: T4, CLK3 (Homo sapiens, UniProt P49761); conditions: CLK3, 1 uM
T4 construct: purchased Ambit KINOMEscan (DiscoverX)
Procedure, shortened: as §1

[5] = biological target: T5, EGFR(L747-T751del,Sins) (Homo sapiens, UniProt P00533, DEL747-750/T751S); conditions: 1 uM
T5 construct: purchased Ambit KINOMEscan (DiscoverX)
Procedure, shortened: as §1

[6] = biological target: T6, EGFR(L858R) (Homo sapiens, UniProt P00533, L858R); conditions: 1 uM
T6 construct: purchased Ambit KINOMEscan (DiscoverX)
Procedure, shortened: as §1

[7] = biological target: T7, EPHA8 (Homo sapiens, UniProt P29322); conditions: EPHA8, 1 uM
T7 construct: purchased Ambit KINOMEscan (DiscoverX)
Procedure, shortened: as §1

[8] = biological target: T8, GRK4 (Homo sapiens, UniProt P32298); conditions: GRK4, 1 uM
T8 construct: purchased Ambit KINOMEscan (DiscoverX)
Procedure, shortened: as §1

[9] = biological target: T9, MAP4K2 (Homo sapiens, UniProt Q12851); conditions: for % binding compared to no inhibitor control: MAP4K2, 1 uM
T9 construct: purchased Ambit KINOMEscan (DiscoverX)
T9 sequence (Q12851 1-820): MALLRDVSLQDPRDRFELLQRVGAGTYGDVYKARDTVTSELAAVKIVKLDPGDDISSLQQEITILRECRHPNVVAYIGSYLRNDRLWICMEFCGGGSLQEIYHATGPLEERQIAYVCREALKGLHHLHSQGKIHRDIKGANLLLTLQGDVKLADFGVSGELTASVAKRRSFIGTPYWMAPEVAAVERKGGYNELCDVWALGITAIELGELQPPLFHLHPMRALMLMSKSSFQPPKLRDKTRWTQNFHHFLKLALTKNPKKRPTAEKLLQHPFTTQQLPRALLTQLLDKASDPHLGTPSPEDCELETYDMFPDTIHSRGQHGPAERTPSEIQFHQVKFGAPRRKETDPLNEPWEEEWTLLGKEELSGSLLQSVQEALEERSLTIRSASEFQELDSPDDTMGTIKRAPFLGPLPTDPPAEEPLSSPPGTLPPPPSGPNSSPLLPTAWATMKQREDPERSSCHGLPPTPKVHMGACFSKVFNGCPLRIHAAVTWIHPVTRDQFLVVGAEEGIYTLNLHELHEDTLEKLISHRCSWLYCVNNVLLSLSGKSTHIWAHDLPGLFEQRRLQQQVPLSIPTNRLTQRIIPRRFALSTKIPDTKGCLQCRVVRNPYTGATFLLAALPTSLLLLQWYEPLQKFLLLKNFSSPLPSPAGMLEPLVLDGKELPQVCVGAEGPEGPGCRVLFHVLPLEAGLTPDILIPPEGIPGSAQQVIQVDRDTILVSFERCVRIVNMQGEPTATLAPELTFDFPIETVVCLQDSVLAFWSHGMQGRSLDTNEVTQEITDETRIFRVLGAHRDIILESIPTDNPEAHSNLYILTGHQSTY
Procedure, shortened: as §1

[10] = biological target: T10, MEK1 (Homo sapiens, UniProt Q02750); conditions: MEK1, 1 uM
T10 construct: purchased Ambit KINOMEscan (DiscoverX)
Procedure, shortened: as §1

[11] = biological target: T11, MET (Homo sapiens, UniProt P08581); conditions: 1 uM
T11 construct: purchased Ambit KINOMEscan (DiscoverX)
Procedure, shortened: as §1

[12] = biological target: T12, PAK3 (Homo sapiens, UniProt O75914); conditions: PAK3, 1 uM
T12 construct: purchased Ambit KINOMEscan (DiscoverX)
Procedure, shortened: as §1

[13] = biological target: T13, PDGFRB (Homo sapiens, UniProt P09619); conditions: 1 uM
T13 construct: purchased Ambit KINOMEscan (DiscoverX)
Procedure, shortened: as §1

[14] = biological target: T14, PIK3CA(E542K) (Homo sapiens, UniProt P42336, E542K); conditions: 1 uM
T14 construct: purchased Ambit KINOMEscan (DiscoverX)
Procedure, shortened: as §1

[15] = biological target: T15, PIK3CA(E545K) (Homo sapiens, UniProt P42336, E545K); conditions: 1 uM
T15 construct: purchased Ambit KINOMEscan (DiscoverX)
Procedure, shortened: as §1

[16] = biological target: T16, PKN2 (Homo sapiens, UniProt Q16513); conditions: PKN2, 1 uM
T16 construct: purchased Ambit KINOMEscan (DiscoverX)
Procedure, shortened: as §1

[17] = biological target: T17, PLK1 (Homo sapiens, UniProt P53350); conditions: PLK1, 1 uM
T17 construct: purchased Ambit KINOMEscan (DiscoverX)
Procedure, shortened: as §1

[18] = biological target: T18, PRKCH (Homo sapiens, UniProt P24723); conditions: 1 uM
T18 construct: purchased Ambit KINOMEscan (DiscoverX)
Procedure, shortened: as §1

[19] = biological target: T19, PRKD1 (Homo sapiens, UniProt Q15139); conditions: PRKD1, 1 uM
T19 construct: purchased Ambit KINOMEscan (DiscoverX)
Procedure, shortened: as §1

[20] = biological target: T20, PRKD2 (Homo sapiens, UniProt Q9BZL6); conditions: PRKD2, 1 uM
T20 construct: purchased Ambit KINOMEscan (DiscoverX)
Procedure, shortened: as §1

[21] = biological target: T21, PRKR (Homo sapiens, UniProt P19525); conditions: 1 uM
T21 construct: purchased Ambit KINOMEscan (DiscoverX)
Procedure, shortened: as §1

[22] = biological target: T22, RIOK2 (Homo sapiens, UniProt Q9BVS4); conditions: RIOK2, 1 uM
T22 construct: purchased Ambit KINOMEscan (DiscoverX)
Procedure, shortened: as §1

[23] = biological target: T23, RIPK1 (Homo sapiens, UniProt Q13546); conditions: RIPK1, 1 uM
T23 construct: purchased Ambit KINOMEscan (DiscoverX)
Procedure, shortened: as §1

[24] = biological target: T24, RPS6KA1(Kin.Dom.2-C-terminal) (Homo sapiens, UniProt Q15418); conditions: 1 uM
T24 construct: RPS6KA1(Kin.Dom.2-C-terminal); purchased Ambit KINOMEscan (DiscoverX)
Procedure, shortened: as §1

[25] = biological target: T25, STK35 (Homo sapiens, UniProt Q8TDR2); conditions: STK35, 1 uM
T25 construct: purchased Ambit KINOMEscan (DiscoverX)
Procedure, shortened: as §1

[26] = biological target: T26, TAOK3 (Homo sapiens, UniProt Q9H2K8); conditions: TAOK3, 1 uM
T26 construct: purchased Ambit KINOMEscan (DiscoverX)
Procedure, shortened: as §1

[27] = biological target: T27, TIE1 (Homo sapiens, UniProt P35590); conditions: TIE1, 1 uM
T27 construct: purchased Ambit KINOMEscan (DiscoverX)
Procedure, shortened: as §1

[28] = biological target: T28, TRKC (Homo sapiens, UniProt Q16288); conditions: 1 uM
T28 construct: purchased Ambit KINOMEscan (DiscoverX)
Procedure, shortened: as §1

[29] = biological target: T29, TXK (Homo sapiens, UniProt P42681); conditions: 1 uM
T29 construct: purchased Ambit KINOMEscan (DiscoverX)
Procedure, shortened: as §1

T26 sequence (Q9H2K8 whole entry): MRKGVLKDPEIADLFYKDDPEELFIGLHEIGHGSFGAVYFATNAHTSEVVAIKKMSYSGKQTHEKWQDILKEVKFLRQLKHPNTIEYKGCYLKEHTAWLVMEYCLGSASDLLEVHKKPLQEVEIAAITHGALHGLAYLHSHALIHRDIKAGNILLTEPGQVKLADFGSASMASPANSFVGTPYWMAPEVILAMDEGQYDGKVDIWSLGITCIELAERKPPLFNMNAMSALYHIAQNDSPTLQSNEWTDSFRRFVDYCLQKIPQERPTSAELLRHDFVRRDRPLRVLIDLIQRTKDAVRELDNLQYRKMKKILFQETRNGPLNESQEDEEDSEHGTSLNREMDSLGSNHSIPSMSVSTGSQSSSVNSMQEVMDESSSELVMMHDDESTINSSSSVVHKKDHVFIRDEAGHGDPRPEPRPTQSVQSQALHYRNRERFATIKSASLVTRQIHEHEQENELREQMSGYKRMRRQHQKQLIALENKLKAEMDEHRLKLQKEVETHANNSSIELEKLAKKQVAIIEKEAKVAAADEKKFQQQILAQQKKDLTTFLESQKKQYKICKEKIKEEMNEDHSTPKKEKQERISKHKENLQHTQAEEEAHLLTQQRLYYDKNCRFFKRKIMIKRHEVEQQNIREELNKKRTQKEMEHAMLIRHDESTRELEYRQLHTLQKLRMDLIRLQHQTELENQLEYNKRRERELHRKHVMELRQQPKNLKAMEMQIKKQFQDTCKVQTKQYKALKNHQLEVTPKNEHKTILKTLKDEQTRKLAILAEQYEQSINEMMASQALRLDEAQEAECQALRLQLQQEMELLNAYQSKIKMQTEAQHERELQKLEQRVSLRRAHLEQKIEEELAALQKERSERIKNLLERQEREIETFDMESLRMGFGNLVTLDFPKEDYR
T6 sequence (P00533 25-1210 L858R): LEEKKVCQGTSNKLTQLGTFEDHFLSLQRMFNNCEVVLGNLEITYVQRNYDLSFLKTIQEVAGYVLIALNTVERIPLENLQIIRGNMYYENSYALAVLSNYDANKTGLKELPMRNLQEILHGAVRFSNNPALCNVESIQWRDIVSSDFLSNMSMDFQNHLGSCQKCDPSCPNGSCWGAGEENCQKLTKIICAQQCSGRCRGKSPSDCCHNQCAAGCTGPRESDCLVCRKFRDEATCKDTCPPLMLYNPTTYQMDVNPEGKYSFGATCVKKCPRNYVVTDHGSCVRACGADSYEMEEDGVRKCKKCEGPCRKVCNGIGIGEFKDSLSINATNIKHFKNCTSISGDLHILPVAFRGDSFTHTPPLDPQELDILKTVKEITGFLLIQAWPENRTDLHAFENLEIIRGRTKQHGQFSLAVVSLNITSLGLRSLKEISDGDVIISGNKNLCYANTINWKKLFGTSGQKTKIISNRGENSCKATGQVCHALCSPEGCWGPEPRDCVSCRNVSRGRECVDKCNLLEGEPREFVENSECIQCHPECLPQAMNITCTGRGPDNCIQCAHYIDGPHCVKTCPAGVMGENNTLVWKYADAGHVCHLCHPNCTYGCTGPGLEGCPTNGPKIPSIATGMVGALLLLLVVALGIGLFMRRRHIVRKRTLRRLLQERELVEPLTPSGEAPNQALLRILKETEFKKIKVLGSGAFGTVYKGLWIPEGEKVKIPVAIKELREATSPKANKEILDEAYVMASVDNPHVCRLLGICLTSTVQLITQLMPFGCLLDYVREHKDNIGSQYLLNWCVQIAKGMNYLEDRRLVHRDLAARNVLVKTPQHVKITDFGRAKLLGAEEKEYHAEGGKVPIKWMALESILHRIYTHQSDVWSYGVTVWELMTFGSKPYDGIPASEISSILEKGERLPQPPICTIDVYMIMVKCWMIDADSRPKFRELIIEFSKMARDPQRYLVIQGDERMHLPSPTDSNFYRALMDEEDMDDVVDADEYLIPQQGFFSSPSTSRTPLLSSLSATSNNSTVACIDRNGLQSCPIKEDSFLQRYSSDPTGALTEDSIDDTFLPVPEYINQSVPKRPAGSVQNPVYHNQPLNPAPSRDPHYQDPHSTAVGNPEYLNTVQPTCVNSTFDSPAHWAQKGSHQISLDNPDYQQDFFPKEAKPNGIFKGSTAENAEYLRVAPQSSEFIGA
T2 sequence (Q9UM73 19-1620): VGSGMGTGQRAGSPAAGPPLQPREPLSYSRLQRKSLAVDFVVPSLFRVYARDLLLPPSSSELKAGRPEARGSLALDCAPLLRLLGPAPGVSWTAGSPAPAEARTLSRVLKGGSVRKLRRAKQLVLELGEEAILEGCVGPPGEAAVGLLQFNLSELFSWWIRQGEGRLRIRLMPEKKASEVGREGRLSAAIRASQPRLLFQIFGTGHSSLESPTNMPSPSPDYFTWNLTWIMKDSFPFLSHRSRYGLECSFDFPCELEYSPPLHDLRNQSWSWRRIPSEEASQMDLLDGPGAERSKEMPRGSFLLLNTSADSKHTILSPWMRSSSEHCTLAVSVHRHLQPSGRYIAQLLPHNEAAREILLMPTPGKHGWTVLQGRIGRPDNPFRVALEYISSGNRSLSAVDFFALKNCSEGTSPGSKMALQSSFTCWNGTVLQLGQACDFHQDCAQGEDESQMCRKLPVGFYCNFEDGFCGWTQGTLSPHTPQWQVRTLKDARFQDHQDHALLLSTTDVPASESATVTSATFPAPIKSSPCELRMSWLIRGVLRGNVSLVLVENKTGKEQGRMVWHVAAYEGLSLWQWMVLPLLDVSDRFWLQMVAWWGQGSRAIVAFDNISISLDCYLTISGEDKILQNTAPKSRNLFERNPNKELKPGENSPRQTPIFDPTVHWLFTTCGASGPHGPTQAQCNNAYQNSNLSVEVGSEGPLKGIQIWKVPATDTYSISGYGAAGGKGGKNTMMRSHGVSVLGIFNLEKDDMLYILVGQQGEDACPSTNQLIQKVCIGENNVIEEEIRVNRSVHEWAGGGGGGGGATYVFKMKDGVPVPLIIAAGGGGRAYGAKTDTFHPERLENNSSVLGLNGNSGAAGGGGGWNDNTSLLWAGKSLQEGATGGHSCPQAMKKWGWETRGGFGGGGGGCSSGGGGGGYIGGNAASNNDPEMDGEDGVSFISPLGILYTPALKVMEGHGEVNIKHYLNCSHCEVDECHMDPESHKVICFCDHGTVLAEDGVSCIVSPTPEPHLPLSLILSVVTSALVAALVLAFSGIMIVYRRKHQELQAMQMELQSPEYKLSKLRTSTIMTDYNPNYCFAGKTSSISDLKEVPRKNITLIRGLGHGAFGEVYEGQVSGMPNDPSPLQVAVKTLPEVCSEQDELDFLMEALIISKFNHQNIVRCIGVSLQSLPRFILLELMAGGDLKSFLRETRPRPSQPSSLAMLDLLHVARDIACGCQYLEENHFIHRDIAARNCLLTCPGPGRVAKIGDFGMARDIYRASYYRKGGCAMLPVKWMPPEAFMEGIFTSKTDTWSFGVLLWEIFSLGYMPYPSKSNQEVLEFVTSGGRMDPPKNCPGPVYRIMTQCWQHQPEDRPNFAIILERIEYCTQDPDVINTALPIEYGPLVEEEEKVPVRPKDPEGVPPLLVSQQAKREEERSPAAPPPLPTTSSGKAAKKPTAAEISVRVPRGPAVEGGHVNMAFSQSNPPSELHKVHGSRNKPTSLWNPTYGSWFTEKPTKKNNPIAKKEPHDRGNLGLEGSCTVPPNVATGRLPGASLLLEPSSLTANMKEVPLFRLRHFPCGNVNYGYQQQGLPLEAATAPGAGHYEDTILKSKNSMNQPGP
T20 sequence (Q9BZL6 whole entry): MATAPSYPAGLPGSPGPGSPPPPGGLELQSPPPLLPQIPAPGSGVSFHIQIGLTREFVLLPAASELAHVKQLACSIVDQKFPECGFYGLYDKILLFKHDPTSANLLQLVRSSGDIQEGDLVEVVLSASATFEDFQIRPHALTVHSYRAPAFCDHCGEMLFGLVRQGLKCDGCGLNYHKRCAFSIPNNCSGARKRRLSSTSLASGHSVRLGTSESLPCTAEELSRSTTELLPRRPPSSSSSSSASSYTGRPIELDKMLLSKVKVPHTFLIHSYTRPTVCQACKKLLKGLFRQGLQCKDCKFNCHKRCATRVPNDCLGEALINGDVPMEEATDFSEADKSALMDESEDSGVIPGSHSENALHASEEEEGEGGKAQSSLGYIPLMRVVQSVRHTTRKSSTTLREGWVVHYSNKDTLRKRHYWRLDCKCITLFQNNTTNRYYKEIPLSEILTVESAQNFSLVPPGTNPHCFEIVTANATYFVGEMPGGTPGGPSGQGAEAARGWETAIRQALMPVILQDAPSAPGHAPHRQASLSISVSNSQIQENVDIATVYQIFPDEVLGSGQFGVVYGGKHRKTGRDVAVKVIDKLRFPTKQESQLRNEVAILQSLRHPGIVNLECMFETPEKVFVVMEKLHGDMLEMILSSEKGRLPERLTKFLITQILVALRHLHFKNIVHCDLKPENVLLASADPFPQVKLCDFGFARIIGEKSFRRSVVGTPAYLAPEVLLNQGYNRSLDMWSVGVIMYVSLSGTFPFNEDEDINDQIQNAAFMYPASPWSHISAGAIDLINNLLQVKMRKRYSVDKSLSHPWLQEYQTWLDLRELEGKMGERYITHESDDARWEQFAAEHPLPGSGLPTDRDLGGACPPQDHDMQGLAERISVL
T10 sequence (Q02750 whole entry): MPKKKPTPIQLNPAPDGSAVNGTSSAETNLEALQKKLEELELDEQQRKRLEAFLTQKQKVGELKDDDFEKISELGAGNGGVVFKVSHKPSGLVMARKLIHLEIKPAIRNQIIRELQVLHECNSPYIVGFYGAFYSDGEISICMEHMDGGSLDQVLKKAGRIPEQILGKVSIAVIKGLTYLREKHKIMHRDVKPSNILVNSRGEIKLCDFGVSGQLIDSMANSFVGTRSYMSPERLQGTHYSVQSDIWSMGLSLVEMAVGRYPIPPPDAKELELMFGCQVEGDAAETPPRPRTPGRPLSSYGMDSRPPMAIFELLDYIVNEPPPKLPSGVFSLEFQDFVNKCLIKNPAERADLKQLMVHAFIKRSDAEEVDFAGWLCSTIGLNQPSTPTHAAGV

| Structure (SMILES) | % binding compared to no inhibitor control [1] | % binding compared to no inhibitor control [2] | % binding compared to no inhibitor control [3] | % binding compared to no inhibitor control [4] | % binding compared to no inhibitor control [5] | % binding compared to no inhibitor control [6] | % binding compared to no inhibitor control [7] | % binding compared to no inhibitor control [8] | % binding compared to no inhibitor control [9] | % binding compared to no inhibitor control [10] | % binding compared to no inhibitor control [11] | % binding compared to no inhibitor control [12] | % binding compared to no inhibitor control [13] | % binding compared to no inhibitor control [14] | % binding compared to no inhibitor control [15] | % binding compared to no inhibitor control [16] | % binding compared to no inhibitor control [17] | % binding compared to no inhibitor control [18] | % binding compared to no inhibitor control [19] | % binding compared to no inhibitor control [20] | further results |
| --- | --- | --- | --- | --- | --- | --- | --- | --- | --- | --- | --- | --- | --- | --- | --- | --- | --- | --- | --- | --- | --- |
| COc1ccc(-c2cc3nccn3c(Nc3ncccc3C(N)=O)n2)cc1OC.Cl.Cl [BAY61-3606, 2-[7-(3,4-dimethoxyphenyl)-imidazo [1,2-c]pyrimidin-5-ylamino] nicotinamide dihydrochloride, reference compound] | 1.6% | 84% | 100% | 100% | 80% | 100% | 83% | 73% | 6% | 100% | 100% | 92% | 47% | 99% | 100% | 34% | 98% | 58% | 39% | 53% | % inhibition ATP binding ([9]; MAP4K2, KINOMEscan, 1 μM): 94%; % binding compared to no inhibitor control [21]: 27%; % binding compared to no inhibitor control [22]: 4%; % binding compared to no inhibitor control [23]: 86%; % binding compared to no inhibitor control [24]: 50%; % binding compared to no inhibitor control [25]: 88%; % binding compared to no inhibitor control [26]: 100%; % binding compared to no inhibitor control [27]: 100%; % binding compared to no inhibitor control [28]: 92%; % binding compared to no inhibitor control [29]: 95% |
| COc1ccccc1Nc1nc(-c2ccc(OC)c(OC)c2)cc2nccn12 [BAY derivative 6] | 52% | 52% | 100% | 100% | 89% | 88% | 100% | 100% | 100% | 100% | 100% | 100% | 67% | 100% | 100% | 91% | 100% | 100% | 100% | 100% | % binding compared to no inhibitor control [21]: 100%; % binding compared to no inhibitor control [22]: 80%; % binding compared to no inhibitor control [23]: 100%; % binding compared to no inhibitor control [24]: 100%; % binding compared to no inhibitor control [25]: 91%; % binding compared to no inhibitor control [26]: 100%; % binding compared to no inhibitor control [27]: 94%; % binding compared to no inhibitor control [28]: 98%; % binding compared to no inhibitor control [29]: 78% |
